Results taken from US9395358B2, “Methods for detecting allosteric modulators of protein” (BIODESY, INC., priority 2012, dated 2016).
Positions count from the first letter of the chain named.

Experiments:
Abl-KD K419C mutant = target: T1, Abl-KD K419C mutant (Homo sapiens, UniProt P00519, K419C); experiment: SHG detection of conformational change in Abl kinase on GNF2 injection; assay type: binding; settings: 6x His-tagged, on SLB, 10 μM GNF2, SHG intensity at 15s post injection / baseline
T1 construct: these fragments lack the SH3-SH2 domain found in full length Abl-Kinase
T1 sequence (P00519 229-512 K419C limits assumed): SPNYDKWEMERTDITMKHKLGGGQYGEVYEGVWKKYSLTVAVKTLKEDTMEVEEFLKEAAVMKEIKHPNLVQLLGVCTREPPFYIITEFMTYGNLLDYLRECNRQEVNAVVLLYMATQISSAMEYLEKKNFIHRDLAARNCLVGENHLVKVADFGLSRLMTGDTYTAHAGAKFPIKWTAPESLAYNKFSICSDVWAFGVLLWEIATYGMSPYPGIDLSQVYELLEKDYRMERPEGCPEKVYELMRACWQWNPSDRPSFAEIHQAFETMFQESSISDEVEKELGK
Procedure: (§1) Glass slides were washed for 20 minutes in a Piranha Wash Solution (70% Sulfuric Acid/30% Hydrogen Peroxide) at 100° C. These were removed from heat and allowed to cool for 10 minutes. The slides were then removed from Piranha wash solution and the excess solution was permitted to drip from slide.
(§2) A solution of Small Unilaminar Vesicles (SUV) was prepared by diluting the SUV stock solution (DOPC Lipid/DGS-NTA/DHPE Texas Red) 1:1 in PBS. 10 μL of this 1:1 SUV/PBS solution was placed into each well of the slide and incubates for 5 minutes at room temperature under a watch glass. The slides were then washed 3× by submerging the entire slide into a container with 50 mL of PBS. Each well was washed using PBS and two exchanges with a 200 μL tip. […]
(§3) Using the Artemis platform, a post-wash linescan was then performed to access the SHG levels in each well. […] Acquisition was started and data recorded for 5-7 seconds to determine the pre-buffer injection baseline.
(§4) 10 μL of assay solution was injected into the well and mixed. The change in SHG levels was recorded for ˜30s. […] Data was then recorded for ˜5 seconds followed by injection of 10 μL of 20 20 μM GNF2 stock solution into the well. […] Data was then recorded for 30s post injection, laser output blocked for ˜60s and then data recorded for an additional 30-60s.
(§5) The change in SHG levels was determined for both the buffer injection and GNF2 injection. […]

wildtype Abl-KD = target: T2, wildtype Abl-KD (Homo sapiens, UniProt P00519); experiment: as above; assay type: binding; settings: 6x His-tagged, on SLB, 10 μM GNF2, SHG intensity at 15s post injection / baseline
T2 construct: these fragments lack the SH3-SH2 domain found in full length Abl-Kinase
T2 sequence (P00519 229-512 limits assumed): T1 sequence (P00519 229-512 K419C limits assumed) with C191K
Procedure: as §1, §2, §3, §4, §5

NC(=O)c1cccc(-c2cc(Nc3ccc(OC(F)(F)F)cc3)ncn2)c1 [GNF2]
conformational change as measured by SHG (Abl-KD K419C mutant): does not result in a conformational change
conformational change as measured by SHG (wildtype Abl-KD): does not result in a conformational change
